One experiment deals with T1, LRRK2 WT (Homo sapiens, UniProt Q5S007).
T1 construct: purchased Life Technologies PR8604B
Kind of experiment: LRRK2 Kinase Activity Assay (LanthaScreen TR-FRET), wild type. The class given is biochemical. As to conditions: recombinant wild type LRRK2, 25 μM ATP, 400 nM LRRKtide, 60 min. The procedure, abridged: (§1)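 Recombinant wild-type or G2019S LRRK2 incubated with fluorescein-labeled LRRKtide (ERM-based) peptide, ATP and serially diluted compound for 60 min at room temperature.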
(In TR-FRET formats the signal depends on donor and acceptor labels being close together.)

The next experiment deals with T2, LRRK2 G2019S (Homo sapiens, UniProt Q5S007, G2019S).
T2 construct: purchased Life Technologies PV4881
The experiment is described as follows: LRRK2 Kinase Activity Assay (LanthaScreen TR-FRET), G2019S. It counts as biochemical. As to conditions: recombinant G2019S-LRRK2, 25 μM ATP, 400 nM LRRKtide, 60 min; class symbols. A digest of the protocol: as §1

A word on the IC50: it is the midpoint of a concentration-inhibition curve.

T2 sequence (Q5S007 whole entry G2019S): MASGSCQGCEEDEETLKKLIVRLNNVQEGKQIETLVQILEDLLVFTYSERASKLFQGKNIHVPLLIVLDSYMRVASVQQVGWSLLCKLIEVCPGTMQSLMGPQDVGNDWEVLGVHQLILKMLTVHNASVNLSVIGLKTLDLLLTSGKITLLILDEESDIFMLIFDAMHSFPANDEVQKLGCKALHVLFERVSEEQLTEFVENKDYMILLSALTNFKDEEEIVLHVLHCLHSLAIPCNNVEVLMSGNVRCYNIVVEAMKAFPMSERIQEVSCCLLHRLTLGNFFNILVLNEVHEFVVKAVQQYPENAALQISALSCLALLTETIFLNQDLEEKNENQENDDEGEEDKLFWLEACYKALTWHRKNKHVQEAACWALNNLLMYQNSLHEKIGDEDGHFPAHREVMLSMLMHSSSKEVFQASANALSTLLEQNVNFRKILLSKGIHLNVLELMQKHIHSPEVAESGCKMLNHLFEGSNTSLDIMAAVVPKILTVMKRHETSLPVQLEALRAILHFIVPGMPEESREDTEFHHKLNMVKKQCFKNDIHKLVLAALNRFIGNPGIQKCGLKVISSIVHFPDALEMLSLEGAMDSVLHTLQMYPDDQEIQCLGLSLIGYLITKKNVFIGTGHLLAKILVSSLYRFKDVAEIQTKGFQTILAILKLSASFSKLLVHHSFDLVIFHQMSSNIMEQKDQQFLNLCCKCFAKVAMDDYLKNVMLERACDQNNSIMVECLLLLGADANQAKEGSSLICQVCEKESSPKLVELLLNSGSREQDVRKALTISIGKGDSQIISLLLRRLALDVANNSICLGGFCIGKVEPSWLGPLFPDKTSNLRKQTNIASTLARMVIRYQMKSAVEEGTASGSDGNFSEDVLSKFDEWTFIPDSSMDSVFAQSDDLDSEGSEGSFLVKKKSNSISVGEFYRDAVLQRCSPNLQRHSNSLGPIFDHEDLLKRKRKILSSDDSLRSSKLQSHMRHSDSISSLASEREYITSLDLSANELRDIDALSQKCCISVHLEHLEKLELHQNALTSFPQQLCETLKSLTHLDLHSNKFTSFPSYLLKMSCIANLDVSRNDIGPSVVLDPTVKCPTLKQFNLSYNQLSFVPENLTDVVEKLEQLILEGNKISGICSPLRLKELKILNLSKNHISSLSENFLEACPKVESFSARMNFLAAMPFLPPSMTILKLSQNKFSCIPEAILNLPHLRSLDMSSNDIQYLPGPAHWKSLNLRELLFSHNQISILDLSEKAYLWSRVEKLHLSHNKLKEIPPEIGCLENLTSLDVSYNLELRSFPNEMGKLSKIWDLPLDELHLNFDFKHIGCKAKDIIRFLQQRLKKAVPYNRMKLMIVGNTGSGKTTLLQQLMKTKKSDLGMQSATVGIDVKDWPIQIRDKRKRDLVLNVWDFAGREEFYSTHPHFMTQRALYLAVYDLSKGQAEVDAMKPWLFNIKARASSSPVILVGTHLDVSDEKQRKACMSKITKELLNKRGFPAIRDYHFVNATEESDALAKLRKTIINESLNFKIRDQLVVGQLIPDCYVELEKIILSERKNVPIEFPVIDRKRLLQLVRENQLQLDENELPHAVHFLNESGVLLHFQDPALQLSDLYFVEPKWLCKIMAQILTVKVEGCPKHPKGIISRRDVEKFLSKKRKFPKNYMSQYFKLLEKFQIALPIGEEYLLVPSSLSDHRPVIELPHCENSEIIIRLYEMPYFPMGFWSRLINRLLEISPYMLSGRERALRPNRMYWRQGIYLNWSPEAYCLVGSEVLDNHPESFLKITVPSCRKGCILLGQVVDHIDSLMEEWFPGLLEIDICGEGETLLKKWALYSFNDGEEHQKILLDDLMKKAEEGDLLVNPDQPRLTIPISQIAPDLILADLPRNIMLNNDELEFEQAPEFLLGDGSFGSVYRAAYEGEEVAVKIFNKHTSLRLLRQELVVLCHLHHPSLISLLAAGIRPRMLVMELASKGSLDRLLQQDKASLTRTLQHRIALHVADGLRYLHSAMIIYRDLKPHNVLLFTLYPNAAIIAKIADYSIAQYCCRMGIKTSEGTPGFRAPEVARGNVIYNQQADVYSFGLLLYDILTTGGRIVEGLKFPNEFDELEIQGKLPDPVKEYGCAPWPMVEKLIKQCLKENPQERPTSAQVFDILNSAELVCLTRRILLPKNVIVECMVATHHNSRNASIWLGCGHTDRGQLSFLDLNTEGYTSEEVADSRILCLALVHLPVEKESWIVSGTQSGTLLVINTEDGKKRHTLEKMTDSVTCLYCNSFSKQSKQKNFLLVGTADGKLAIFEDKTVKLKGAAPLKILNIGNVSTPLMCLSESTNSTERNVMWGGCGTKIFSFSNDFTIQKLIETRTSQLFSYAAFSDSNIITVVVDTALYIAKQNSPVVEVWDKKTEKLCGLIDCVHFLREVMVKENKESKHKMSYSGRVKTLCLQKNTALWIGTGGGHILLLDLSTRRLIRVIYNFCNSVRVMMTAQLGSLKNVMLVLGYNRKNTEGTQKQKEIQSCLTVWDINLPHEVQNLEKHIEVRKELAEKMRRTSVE
T1 sequence (Q5S007 whole entry): as the sequence (Q5S007 whole entry G2019S) above, with S2019G counted along it

Take `C/C=C/c1n[nH]c2ccc(N[C@H]3CCCc4cc(C#N)ccc43)cc12` (single isomer, unassigned) [Example 75, (E)-5-((3-(Prop-1-en-1-yl)-1H-indazol-5-yl)amino)-5,6,7,8-tetrahydronaphthalene-2-carbonitrile]: the IC50 at LRRK2 WT (class symbols) is 100 to 1000 nM; at LRRK2 G2019S, below 100 nM.

As to `N#Cc1ccc2c(c1)CCC[C@@H]2Nc1ccc2[nH]nc(-c3cncc(C4CC4)c3)c2c1` (single isomer, unassigned) [Example 76, 5-((3-(5-Cyclopropylpyridin-3-yl)-1H-indazol-5-yl)amino)-5,6,7,8-tetrahydronaphthalene-2-carbonitrile], the IC50 on LRRK2 WT (class symbols) and on LRRK2 G2019S was below 100 nM in each case.

As for `N#Cc1ccc2c(c1)CCC[C@@H]2Nc1ccc2[nH]nc(-c3ccc4c(c3)OCO4)c2c1` (single isomer, unassigned) [Example 77, 5-((3-(Benzo[d][1,3]dioxol-5-yl)-1H-indazol-5-yl)amino)-5,6,7,8-tetrahydronaphthalene-2-carbonitrile], the IC50 on LRRK2 WT (class symbols) and at LRRK2 G2019S was below 100 nM in each case.

In the case of `N#Cc1ccc2c(c1)CCC[C@@H]2Nc1ccc2[nH]nc(-c3ccc4[nH]ccc4c3)c2c1` (single isomer, unassigned) [Example 78, 5-((3-(1H-Indol-5-yl)-1H-indazol-5-yl)amino)-5,6,7,8-tetrahydronaphthalene-2-carbonitrile], the half-inhibitory concentration (IC50) is 100 to 1000 nM at LRRK2 WT (class symbols) and below 100 nM on LRRK2 G2019S.

Take `N#Cc1ccc2c(c1)CCC[C@@H]2Nc1ccc2[nH]nc(-c3ccc[nH]3)c2c1` (single isomer, unassigned) [Example 79, 5-((3-(1H-Pyrrol-2-yl)-1H-indazol-5-yl)amino)-5,6,7,8-tetrahydronaphthalene-2-carbonitrile]: the IC50 on LRRK2 WT (class symbols) was 100 to 1000 nM; at LRRK2 G2019S, below 100 nM.

Turning to `CC(C)(C)OC(=O)n1cccc1-c1n[nH]c2ccc(N[C@H]3CCCc4cc(C#N)ccc43)cc12` (single isomer, unassigned) [Example 80, tert-Butyl 2-(5-((6-cyano-1,2,3,4-tetrahydronaphthalen-1-yl)amino)-1H-indazol-3-yl)-1H-pyrrole-1-carboxylate], the IC50 is above 10000 nM at LRRK2 WT (numeric bound) and 100 to 1000 nM on LRRK2 G2019S.

On to `N#Cc1ccc2c(c1)CCC[C@@H]2Nc1ccc2[nH]nc(-c3ccc(C(=O)N4CCOCC4)cc3)c2c1` (single isomer, unassigned) [Example 81, 5-((3-(4-(Morpholine-4-carbonyl)phenyl)-1H-indazol-5-yl)amino)-5,6,7,8-tetrahydronaphthalene-2-carbonitrile], for which the IC50 at LRRK2 WT (class symbols) and on LRRK2 G2019S was below 100 nM in each case.

For the compound `N#Cc1ccc2c(c1)CCC[C@@H]2Nc1ccc2[nH]nc(-c3ccc4c(c3)NC(=O)C4)c2c1` (single isomer, unassigned) [Example 82, 5-((3-(2-Oxoindolin-6-yl)-1H-indazol-5-yl)amino)-5,6,7,8-tetrahydronaphthalene-2-carbonitrile], the IC50 on LRRK2 WT (class symbols) and on LRRK2 G2019S was below 100 nM in each case.

Turning to `Cn1cc2cc(-c3n[nH]c4ccc(N[C@H]5CCCc6cc(C#N)ccc65)cc34)ccc2n1` (single isomer, unassigned) [Example 83, 5-((2′-Methyl-1H,2′H-[3,5′-biindazol]-5-yl)amino)-5,6,7,8-tetrahydronaphthalene-2-carbonitrile], the IC50 on LRRK2 WT (class symbols) and on LRRK2 G2019S was below 100 nM throughout.

As for `N#Cc1ccc2c(c1)CCC[C@@H]2Nc1ccc2[nH]nc(-c3ccc4c(c3)OCCO4)c2c1` (single isomer, unassigned) [Example 84, 5-((3-(2,3-Dihydrobenzo[b][1,4]dioxin-6-yl)-1H-indazol-5-yl)amino)-5,6,7,8-tetrahydronaphthalene-2-carbonitrile], the IC50 was 100 to 1000 nM on LRRK2 WT (class symbols) and below 100 nM at LRRK2 G2019S.

Consider `CC(=O)Nc1cccc(-c2n[nH]c3ccc(N[C@H]4CCCc5cc(C#N)ccc54)cc23)c1` (single isomer, unassigned) [Example 85, N-(3-(5-((6-Cyano-1,2,3,4-tetrahydronaphthalen-1-yl)amino)-1H-indazol-3-yl)phenyl)acetamide], for which the IC50 at LRRK2 WT (class symbols) and on LRRK2 G2019S was below 100 nM each time.

As for `CN(C)C(=O)c1cccc(-c2n[nH]c3ccc(N[C@H]4CCCc5cc(C#N)ccc54)cc23)c1` (single isomer, unassigned) [Example 86, 3-(5-((6-Cyano-1,2,3,4-tetrahydronaphthalen-1-yl)amino)-1H-indazol-3-yl)-N,N-dimethylbenzamide], the IC50 at LRRK2 WT (class symbols) and at LRRK2 G2019S was below 100 nM throughout.

As to `N#Cc1ccc2c(c1)CCC[C@@H]2Nc1ccc2[nH]nc(C3=CCC4(CC3)OCCO4)c2c1` (single isomer, unassigned) [Example 87, 5-((3-(1,4-Dioxaspiro[4.5]dec-7-en-8-yl)-1H-indazol-5-yl)amino)-5,6,7,8-tetrahydronaphthalene-2-carbonitrile], the IC50 at LRRK2 WT (class symbols) is 1000 to 10000 nM; on LRRK2 G2019S, 100 to 1000 nM.

Take `N#Cc1ccc2c(c1)CCC[C@@H]2Nc1ccc2[nH]nc(C3=CCOCC3)c2c1` (single isomer, unassigned) [Example 88, 5-((3-(3,6-Dihydro-2H-pyran-4-yl)-1H-indazol-5-yl)amino)-5,6,7,8-tetrahydronaphthalene-2-carbonitrile]: the IC50 was 100 to 1000 nM at LRRK2 WT (class symbols) and below 100 nM at LRRK2 G2019S.

As for `N#Cc1cccc(-c2n[nH]c3ccc(N[C@H]4CCCc5cc(C#N)ccc54)cc23)c1` (single isomer, unassigned) [Example 89, 5-((3-(3-Cyanophenyl)-1H-indazol-5-yl)amino)-5,6,7,8-tetrahydronaphthalene-2-carbonitrile], the IC50 at LRRK2 WT (class symbols) and on LRRK2 G2019S was below 100 nM throughout.

Regarding `N#Cc1ccc2c(c1)CCC[C@@H]2Nc1ccc2[nH]nc(-c3ccc(C#N)nc3)c2c1` (single isomer, unassigned) [Example 91, 5-(5-((6-Cyano-1,2,3,4-tetrahydronaphthalen-1-yl)amino)-1H-indazol-3-yl)picolinonitrile], the IC50 at LRRK2 WT (class symbols) was 100 to 1000 nM; on LRRK2 G2019S, below 100 nM.

For `COc1ccc(-c2n[nH]c3ccc(N[C@H]4CCCc5cc(C#N)ccc54)cc23)cc1` (single isomer, unassigned) [Example 92, 5-((3-(4-Methoxyphenyl)-1H-indazol-5-yl)amino)-5,6,7,8-tetrahydronaphthalene-2-carbonitrile], the results for the IC50 on LRRK2 WT (class symbols) and at LRRK2 G2019S were 100 to 1000 nM and below 100 nM, respectively.

For `N#Cc1ccc2c(c1)CCC[C@@H]2Nc1ccc2[nH]nc(/C=C/c3ccccc3)c2c1` (single isomer, unassigned) [Example 93, (E)-5-((3-Styryl-1H-indazol-5-yl)amino)-5,6,7,8-tetrahydronaphthalene-2-carbonitrile], the IC50 on LRRK2 WT (class symbols) and on LRRK2 G2019S was below 100 nM throughout.

With `CN1CC=C(c2n[nH]c3ccc(N[C@H]4CCCc5cc(C#N)ccc54)cc23)CC1` (single isomer, unassigned) [Example 94, 5-((3-(1-Methyl-1,2,3,6-tetrahydropyridin-4-yl)-1H-indazol-5-yl)amino)-5,6,7,8-tetrahydronaphthalene-2-carbonitrile], the figures for the 50% inhibitory concentration (IC50) at LRRK2 WT (numeric bound) and at LRRK2 G2019S were above 10000 nM and 1000 to 10000 nM, respectively.

Take `N#Cc1ccc2c(c1)CCC[C@@H]2Nc1ccc2[nH]nc(-c3ccc(Br)cc3)c2c1` (single isomer, unassigned) [Example 95, 5-((3-(4-Bromophenyl)-1H-indazol-5-yl)amino)-5,6,7,8-tetrahydronaphthalene-2-carbonitrile]: the IC50 was 1000 to 10000 nM at LRRK2 WT (class symbols) and below 100 nM on LRRK2 G2019S.

Turning to `N#Cc1ccc2c(c1)CCC[C@@H]2Nc1ccc2[nH]nc(-c3cnn4c3CCC4)c2c1` (single isomer, unassigned) [Example 96, 5-((3-(5,6-Dihydro-4H-pyrrolo[1,2-b]pyrazol-3-yl)-1H-indazol-5-yl)amino)-5,6,7,8-tetrahydronaphthalene-2-carbonitrile], the IC50 at LRRK2 WT (class symbols) and at LRRK2 G2019S was below 100 nM each time.

With `Cn1ccc(-c2n[nH]c3ccc(N[C@H]4CCCc5cc(C#N)ccc54)cc23)cc1=O` (single isomer, unassigned) [Example 97, 5-((3-(1-Methyl-2-oxo-1,2-dihydropyridin-4-yl)-1H-indazol-5-yl)amino)-5,6,7,8-tetrahydronaphthalene-2-carbonitrile], the half-inhibitory concentration (IC50) on LRRK2 WT (class symbols) is 100 to 1000 nM; at LRRK2 G2019S it was below 100 nM.

For `N#Cc1ccc2c(c1)CCC[C@@H]2Nc1ccc2[nH]nc(-c3cccnc3)c2c1` (single isomer, unassigned) [Example 98, 5-((3-(Pyridin-3-yl)-1H-indazol-5-yl)amino)-5,6,7,8-tetrahydronaphthalene-2-carbonitrile], the IC50 on LRRK2 WT (class symbols) and on LRRK2 G2019S was below 100 nM throughout.

Turning to `C/C=C\c1n[nH]c2ccc(N[C@H]3CCCc4cc(C#N)ccc43)cc12` (single isomer, unassigned) [Example 99, (Z)-5-((3-(Prop-1-en-1-yl)-1H-indazol-5-yl)amino)-5,6,7,8-tetrahydronaphthalene-2-carbonitrile], the IC50 is 100 to 1000 nM at LRRK2 WT (class symbols) and below 100 nM on LRRK2 G2019S.

As to `Cc1cncc(-c2n[nH]c3ccc(N[C@H]4CCCc5cc(C#N)ccc54)cc23)c1` (single isomer, unassigned) [Example 100, 5-((3-(5-Methylpyridin-3-yl)-1H-indazol-5-yl)amino)-5,6,7,8-tetrahydronaphthalene-2-carbonitrile], the IC50 at LRRK2 WT (class symbols) and at LRRK2 G2019S was below 100 nM each time.

For the compound `COc1c(C#N)ccc2c1CCC[C@@H]2Nc1ccc2[nH]nc(-c3cnco3)c2c1` (single isomer, unassigned) [Example 101, enantiomer 1, 1-Methoxy-5-{[3-(1,3-oxazol-5-yl)-1H-indazol-5-yl]amino}-5,6,7,8-tetrahydronaphthalene-2-carbonitrile], the IC50 at LRRK2 WT (class symbols) and on LRRK2 G2019S was below 100 nM in each case.
